The values below come from EP2030621A1, “Novel substituted pyrimidines as cysteine protease inhibitors” (GLAXO GROUP LIMITED, priority 2007, dated 2009).

Where a name gives a salt, the structure may show the parent alone.

One assay relates to Plasmodium falciparum parasite. Briefly: Whole cell assay: whole cell activity against the parasite. The assay is classed as cell-based.
Settings: not given
The text has this:
Compounds can be evaluated for whole cell actvity against the Plasmadium falciparum parasite according to the procedure described in Sijwali S. and Rosenthal P. J., (2004) Proceedings of the National Academy of Sciences of the United States of America (PNAS) 101(13), 4384-4389 (see in particular "Measurement of Parasite Growth rates and Inhibitor Sensitivity" on page 4385); IC50 values can be calculated as described in Singh A. and Rosenthal P. J., (2001) Antimicrobial Agents and Chemotherapy 45(3), 949-951 (see in particular page 950, first column); synchronised parasites can be prepared as described in Divo A. A. et al., (1985) Protozool. 32, 59-64. 3) In vitro models to evaluate activity against bone metastasis
In the case of `CN1CCN(c2ncc(C(=O)NN(c3nc(C#N)ncc3Cl)C3CCCC3)s2)CC1` [Example 77], the 50% inhibitory concentration (IC50) lay in the range of 15 to 150 nM.

`CC(=O)N1CCC(N(NC(=O)OC(C)(C)C)c2nc(C#N)ncc2Br)CC1` [Example 79, 1,1-dimethylethyl 2-(1-acetyl-4-plperidinyl)-2-(5-bromo-2-cyano-4-pyrimidinyl)hydrazinecarboxylate] yielded a 50% inhibitory concentration (IC50) of 15 to 150 nM.

Staying with this assay, now noted: Plasmodium falciparum.
As for `CN(Cc1ccc(C(=O)NN(c2nc(C#N)ncc2Cl)C2CCCC2)cc1)C1CCC2(CC1)OCC(C)(C)CO2` [Example 65, N'-(5-chloro-2-cyano-4-pyrimidinyl)-N'-cyclopentyl-4-{[(3,3-dimethyl-1,5-dioxaspiro[5.5]undec-9-yl)(methyl)amino]methyl}benzohydrazide trifluoroacetate], the IC50 is 15 to 150 nM.

In turn, `CCN(CC)Cc1ccc(C(=O)NN(c2nc(C#N)ncc2Cl)C2CCCC2)cc1` [Example 66, N'-(5-chloro-2-cyano-4-pyrimidinyl)-N'-cyclopentyl-4-[(diethylamino)methyl]benzohydrazide trifluoroacetate] gave a half-inhibitory concentration (IC50) of 15 to 150 nM. As for `CN1CCN(Cc2ccc(C(=O)NN(c3nc(C#N)ncc3Cl)C3CCOCC3)cc2)CC1` [Example 67, N'-(5-chloro-2-cyano-4-pyrimidinyl)-4-[(4-methyl-1-piperazinyl)methyl]-N'-(tetrahydro-2H-pyran-4-yl)benzohydrazide trifluoroacetate], the IC50 was 15 to 150 nM. For `CCN(Cc1ccc(C(=O)NN(c2nc(C#N)ncc2Cl)C2CCCC2)cc1)C(C)C` [Example 68, N'-(5-chloro-2-cyano-4-pyrimidinyl)-N'-cyclopentyl-4-{[ethyl(1-methylethyl)amino]methyl}benzohydrazide trifluoroacetate], the half-maximal inhibitory concentration (IC50) is 2.5 to 15 nM. For the molecule `CCN(Cc1ccc(C(=O)NN(c2nc(C#N)ncc2Cl)C2CCCC2)cc1)C1CCCCC1` [Example 69, N'-(5-chloro-2-cyano-4-pyrimidinyl)-4-{[cyclohexyl(ethyl)amino]methyl}-N'-cyclopentylbenzohydrazide trifluoroacetate], the IC50 fell in the range of 2.5 to 15 nM. For `N#Cc1ncc(Cl)c(N(NC(=O)c2ccc(CN3CCC(O)CC3)cc2)C2CCCC2)n1` [Example 70, N'-(5-chloro-2-cyano-4-pyrimidinyl)-N'-cyclopentyl-4-[(4-hydroxy-1-piperidinyl)methyl]benzohydrazide trifluoroacetate], the IC50 fell in the range of 15 to 150 nM. The molecule `CN(Cc1ccc(C(=O)NN(c2nc(C#N)ncc2Cl)C2CCCC2)cc1)C(C)(C)Cc1ccccc1` [Example 71, N'-(5-chloro-2-cyano-4-pyrimidinyl)-N'-cyclopentyl-4-{[(1,1-dimethyl-2-phenylethyl)(methyl)amino]methyl}benzohydrazide trifluoroacetate] yielded an IC50 of 15 to 150 nM. The molecule `CC(C)N(Cc1ccc(C(=O)NN(c2nc(C#N)ncc2Cl)C2CCCC2)cc1)C(C)C` [Example 72, trifluoroacetate] returned an IC50 of 2.5 to 15 nM. On the same count and under the same terms, in the case of `CN(Cc1ccc(C(=O)NN(c2nc(C#N)ncc2Cl)C2CCCC2)cc1)C(C)(C)C` [Example 73, N'-(5-chloro-2-cyano-4-pyrimidinyl)-N'-cyclopentyl-4-{[(1,1-dimethylethyl)(methyl)amino]methyl}benzohydrazide trifluoroacetate] it was 2.5 to 15 nM; in that of `CCN(C)Cc1ccc(C(=O)NN(c2nc(C#N)ncc2Cl)C2CCCC2)cc1` [Example 74, N'-(5-chloro-2-cyano-4-pyrimidinyl)-N'-cyclopentyl-4-{[ethyl(methyl)amino]methyl}benzohydrazide trifluoroacetate], 15 to 150 nM. `CC(C)N(Cc1ccc(C(=O)NN(c2nc(C#N)ncc2Cl)C2CCCC2)cc1)C1CCCCC1` [Example 75, N'-(5-chloro-2-cyano-4-pyrimidinyl)-4-{[cyclohexyl(1-methylethyl)amino]methyl}-N'-cyclopentylbenzohydrazide trifluoroacetate] came in with a concentration for half-maximal inhibition (IC50) of 15 to 150 nM. Molecule `CN(Cc1ccc(C(=O)NN(c2nc(C#N)ncc2Cl)C2CCCC2)cc1)CC(O)CO` (stereo not drawn) [Example 76, N'-(5-chloro-2-cyano-4-pyrimidinyl)-N'-cyclopentyl-4-{[(2,3-dihydroxypropyl)(methyl)amino]methyl}benzohydrazide trifluoroacetate] had a half-inhibitory concentration (IC50) of 15 to 150 nM. Same read-out and setting: in the case of `CN1CCN(c2cccc(C(=O)NN(c3nc(C#N)ncc3Cl)C3CCCC3)n2)CC1` [Example 78, N'-(5-chloro-2-cyano-4-pyrimidinyl)-N'-cyclopentyl-6-(4-methyl-1-piperazinyl)-2-pyridinecarbohydrazide trifluoroacetate] it was 15 to 150 nM; in that of `CCCN1CCN(c2ccc(C(=O)NN(c3nc(C#N)ncc3Br)C3CCCCC3)cc2)CC1` [Example 80, N'-(5-bromo-2-cyano-4-pyrimidinyl)-N'-cyclohexyl-4-(4-propyl-1-piperazinyl)benzohydrazide trifluoroacetate], 15 to 150 nM. In turn, `CCN(CCCNC(=O)OC(C)(C)C)Cc1ccc(C(=O)NN(c2nc(C#N)ncc2Cl)C2CCCC2)cc1` [Example 81, 1,1-dimethylethyl {3-[[(4-{[2-(5-chloro-2-cyano-4-pyrimidinyl)-2-cyclopentylhydrazino]carbonyl}phenyl)methyl](ethyl)amino]propyl}carbamate] displayed a half-maximal inhibitory concentration (IC50) of 2.5 to 15 nM. In the case of `CN1CCN(Cc2ccc(C(=O)NN(CC(C)(C)C)c3nc(C#N)ncc3Br)cc2)CC1` [comparative Example 39, N'-(5-bromo-2-cyano-4-pyrimidinyl)-N'-(2,2-dimethylpropyl)-4-[(4-methyl-1-piperazinyl)methyl]benzohydrazide trifluoroacetate, reference compound], the IC50 was greater than 400 nM.
